Measurements reported in patent publication US20200308171A1, “BIFUNCTIONAL INHIBITORS WITH EGFR HAVING A E3 UBIQUITIN LIGASE MOIETY” (Hoffmann-La Roche Inc., priority 2017, published 2020).
Counter-ions that a name gives are not always drawn.

What follows are compounds tested against T1, EGFR T790M/L858R/C797S (Homo sapiens, UniProt P00533, C797S/L858R/T790M) (assay: EGFR Degradation Assay (Cellular), FRET quantification of total EGFR). Settings: BaF3 EGFR mutant cell line (EGFR T790M/L858R/C797S); 4-hour incubation; total EGFR FRET kit; top concentration 1 μM, 11 points; read-out: IC50 [nM] mutant EGFR degradation.
T1 construct: expressed in transfected cells; host or cells: BaF3 (murine pro-B) cells stably transduced with pCDH lentiviral vector, PGK promoter
T1 sequence (P00533 25-1210 T790M/C797S/L858R): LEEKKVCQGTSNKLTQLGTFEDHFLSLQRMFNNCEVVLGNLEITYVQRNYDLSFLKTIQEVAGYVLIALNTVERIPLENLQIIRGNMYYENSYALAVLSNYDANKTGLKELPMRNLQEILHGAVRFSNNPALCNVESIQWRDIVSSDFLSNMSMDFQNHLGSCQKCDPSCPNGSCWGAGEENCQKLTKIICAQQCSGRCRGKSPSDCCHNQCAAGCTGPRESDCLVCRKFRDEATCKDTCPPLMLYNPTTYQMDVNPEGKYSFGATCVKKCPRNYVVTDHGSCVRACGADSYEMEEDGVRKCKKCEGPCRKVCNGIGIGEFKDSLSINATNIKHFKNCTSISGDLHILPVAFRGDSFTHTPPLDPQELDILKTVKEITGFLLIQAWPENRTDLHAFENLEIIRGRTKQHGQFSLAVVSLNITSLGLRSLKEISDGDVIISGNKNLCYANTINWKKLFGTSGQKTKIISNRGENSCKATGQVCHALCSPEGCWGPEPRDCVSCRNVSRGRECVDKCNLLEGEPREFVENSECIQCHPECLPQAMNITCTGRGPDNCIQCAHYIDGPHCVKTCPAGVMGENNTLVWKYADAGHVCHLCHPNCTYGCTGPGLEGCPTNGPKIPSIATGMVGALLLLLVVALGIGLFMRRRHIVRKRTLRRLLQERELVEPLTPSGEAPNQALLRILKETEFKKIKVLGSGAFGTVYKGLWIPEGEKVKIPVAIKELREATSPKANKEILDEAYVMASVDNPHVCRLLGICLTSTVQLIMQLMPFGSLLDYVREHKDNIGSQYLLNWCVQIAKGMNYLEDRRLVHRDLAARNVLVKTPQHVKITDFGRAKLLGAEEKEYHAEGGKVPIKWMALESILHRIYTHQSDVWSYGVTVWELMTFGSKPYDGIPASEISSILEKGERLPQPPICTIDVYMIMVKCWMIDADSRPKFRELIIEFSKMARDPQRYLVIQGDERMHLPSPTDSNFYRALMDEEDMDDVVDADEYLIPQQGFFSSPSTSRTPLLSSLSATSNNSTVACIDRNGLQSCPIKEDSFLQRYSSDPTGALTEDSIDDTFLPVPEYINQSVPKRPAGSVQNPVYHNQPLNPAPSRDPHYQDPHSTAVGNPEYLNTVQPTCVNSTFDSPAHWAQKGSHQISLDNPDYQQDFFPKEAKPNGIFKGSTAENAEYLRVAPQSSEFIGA
Type: cell-based
Procedure: EGFR Degradation Assay (Cellular)
The BaF3 parental line was purchased from DSMZ and grown in RPMI media supplemented with 10% FBS and 10 ng/mL interleukin 3 (IL-3) (Thermo Fisher Scientific). EGFR mutants ([…]) were cloned into the pCDH lentiviral vector (SystemBio) under the control of a PGK promoter and confirmed by DNA sequencing. The resulting gene expression vector for each mutant was mixed with packaging vectors and cotransfected into 2×10E6 HEK293T cells (ATCC) in 10 mL of DMEM media to generate lentiviral particles according to the manufacturers protocol (Origene).
Three days post-transfection, the viral supernatant was harvested and filtered. In one well of a 12-well plate, 0.5 mL of viral supernatant was added to 2E6 Ba/F3 cells contained in 1.5 mL of RPMI media including 10% FBS, 10 ng/mL IL-3, and 5 μg/mL polybrene (Invitrogen). The plate was centrifuged at 2,000 rpm for 1 hour at room temperature and infected cells were kept in a tissue culture incubator overnight at 37° C. The cells were washed once in fresh BaF3 media and reseeded at 0.5E6 cells/well of a 12-well plate in media supplemented with 0.5 μg/mL puromycin. The cells were maintained in this media for 3 weeks. IL-3-independent, EGFR mutant transformed cells were routinely maintained in RPMI medium supplemented with 10% FBS.
RPMI 1640 no-phenol red medium and fetal bovine serum (FBS) were purchased from Gibco (Grand Island, N.Y., USA). EGFR total kit and EGFR phospho-Y1068 kit were purchased from Cisbio (Bedford, Mass., USA). BaF3 EGFR mutant cell lines (EGFR T790M/L858R/C797S) cell line was generated in house, according to the protocol reported above. Cell culture flasks and 384-well microplates were acquired from VWR (Radnor, Pa., USA).
EGFR degradation was determined based on quantification of FRET signal using EGFR total kit. The FRET signal detected correlates with total EGFR protein level in cells. Briefly, test compounds were added to the 384-well plate from a top concentration of 1 μM with 11 points, half log titration in quadruplicates. Then, BaF3 EGFR mutant cell lines (EGFR T790M/L858R/C797S) were added into 384-well plates at a cell density of 10000 cells per well. The plates were kept at 37° C. with 5% CO2 for 4 hours. After 4-hour incubation, 4× lysis buffer was added to the cells, and then microplate was agitated on plate shaker at 500 rpm for 30 minutes at room temperature. Next, total EGFR antibody solution was added to the cells and the cells were incubated for another 4 hours at room temperature. Finally, FRET signal was acquired on EnVision™ Multilabel Reader (PerkinElmer, Santa Clara, Calif., USA). The cells treated in the absence of the test compound were the negative control and lysis buffer with antibody solution only were the positive control.

DC50	SMILES
44 nM	COC1CCN(c2nccc(Nc3cc4c(cn3)c(C(=O)NC3CCN(CCCCCCNc5cccc6c5C(=O)N(C5CCC(=O)NC5=O)C6=O)CC3)cn4C(C)C)n2)CC1(F)F (racemic) [Example 3, 6-[[2-[(4RS)-3,3-Difluoro-4-methoxy-1-piperidyl]pyrimidin-4-yl]amino]-N-[1-[6-[[2-[(3RS)-2,6-dioxo-3-piperidyl]-1,3-dioxo-isoindolin-4-yl]amino]hexyl]-4-piperidyl]-1-isopropyl-pyrrolo[3,2-c]pyridine-3-carboxamide]
85 nM	CO[C@H]1CCN(c2nccc(Nc3cc4c(cn3)c(C(=O)NC3CCN(CCCCCCNc5cccc6c5C(=O)N(C5CCC(=O)NC5=O)C6=O)CC3)cn4C3CCCC3)n2)C[C@H]1F (mixture of isomers) [Example 10, 1-Cyclopentyl-N-[1-[6-[[2-[(3RS)-2,6-dioxo-3-piperidyl]-1,3-dioxo-isoindolin-4-yl]amino]hexyl]-4-piperidyl]-6-[[2-[(3R,4S)-3-fluoro-4-methoxy-1-piperidyl]pyrimidin-4-yl]amino]pyrrolo[3,2-c]pyridine-3-carboxamide]
30 nM	CO[C@H]1CCN(c2nccc(Nc3cc4c(cn3)c(C(=O)NC3CCN(C(=O)N5CCN(CCCCNc6cccc7c6C(=O)N(C6CCC(=O)NC6=O)C7=O)CC5)CC3)cn4C3CCCC3)n2)C[C@H]1F (mixture of isomers) [Example 13, 1-Cyclopentyl-N-[1-[4-[4-[[2-[(3RS)-2,6-dioxo-3-piperidyl]-1,3-dioxo-isoindolin-4-yl]amino]butyl]piperazine-1-carbonyl]-4-piperidyl]-6-[[2-[(3R,4S)-3-fluoro-4-methoxy-1-piperidyl]pyrimidin-4-yl]amino]pyrrolo[3,2-c]pyridine-3-carboxamide]
28 nM	CO[C@H]1CCN(c2nccc(Nc3cc4c(cn3)c(C(=O)NC3CCN(CCCCCCNc5cccc6c5C(=O)N(C5CCC(=O)NC5=O)C6=O)CC3)cn4C(C)C)n2)C[C@H]1F (mixture of isomers) [Example 5, N-[1-[6-[[2-[(3RS)-2,6-Dioxo-3-piperidyl]-1,3-dioxo-isoindolin-4-yl]amino]hexyl]-4-piperidyl]-6-[[2-[(3R,4S)(3S,4R)-3-fluoro-4-methoxy-1-piperidyl]pyrimidin-4-yl]amino]-1-isopropyl-pyrrolo[3,2-c]pyridine-3-carboxamide]
69 nM	CO[C@H]1CCN(c2nccc(Nc3cc4c(cn3)c(C(=O)NC3CCN(CCCC5CCN(c6cccc7c6C(=O)N(C6CCC(=O)NC6=O)C7=O)CC5)CC3)cn4C(C)C)n2)C[C@H]1F (mixture of isomers) [Example 12, N-[1-[3-[1-[2-[(3RS)-2,6-Dioxo-3-piperidyl]-1,3-dioxo-isoindolin-4-yl]-4-piperidyl]propyl]-4-piperidyl]-6-[[2-[(3R,4S)(3S,4R)-3-fluoro-4-methoxy-1-piperidyl]pyrimidin-4-yl]amino]-1-isopropyl-pyrrolo[3,2-c]pyridine-3-carboxamide trifluoroacetate]
132 nM	COC1CCN(c2nccc(Nc3cc4c(cn3)c(C(=O)NC3CCN(CCCCCCNc5cccc6c5C(=O)N(C5CCC(=O)NC5=O)C6=O)CC3)cn4C(C)C)n2)CC1 (racemic) [Example 2, N-[1-[6-[[2-[(3RS)-2,6-Dioxo-3-piperidyl]-1,3-dioxo-isoindolin-4-yl]amino]hexyl]-4-piperidyl]-1-isopropyl-6-[[2-(4-methoxy-1-piperidyl)pyrimidin-4-yl]amino]pyrrolo[3,2-c]pyridine-3-carboxamide]
49 nM	CO[C@H]1CCN(c2nccc(Nc3cc4c(cn3)c(C(=O)NC3CCN(CCC5CCN(c6ccc7c(c6)C(=O)N(C6CCC(=O)NC6=O)C7=O)CC5)CC3)cn4C3CCCC3)n2)C[C@H]1F (mixture of isomers) [Example 15, 1-Cyclopentyl-N-[1-[2-[1-[2-[(3RS)-2,6-dioxo-3-piperidyl]-1,3-dioxo-isoindolin-5-yl]-4-piperidyl]ethyl]-4-piperidyl]-6-[[2-[(3R,4S)-3-fluoro-4-methoxy-1-piperidyl]pyrimidin-4-yl]amino]pyrrolo[3,2-c]pyridine-3-carboxamide]
